{
  "source": "patent US6767549B2",
  "about": "“Ionic polymers as anti-infective agents” (Genzyme Corporation, priority 1996, dated 2004)",
  "tested_on": "C. parvum",
  "experiment": "In vitro activity against C. parvum infectivity in MDBK cell monolayers (indirect immunofluorescence assay)",
  "assay_type": "cell-based",
  "settings": "Cryptosporidium parvum, 2 mg/mL, positive control drug, 48 hours",
  "procedure": "Confluent MDBK cell monolayers were grown on 16 well slides, and infected with 5×10^5 of C. parvum oocysts per well. Various dilutions of the test reagents in dimethylsulfoxide (DMSO) were added to the monolayers and cultures were incubated at 37° C.(8% CO2) for 48 hours. The level of C. parvum infections was determined and analysed by an indirect immunofluorescence (IF) assay at 48 hours. Anti-C. parvum sporozoite rabbit serum (1:1000) was used as the primary antibody, and fluorscein-conjugated anti rabbit goat serum (1:100) was used as the secondary antibody. Each dilution was tested in quadruple, and each assay was performed at least two times. The monolayers were methanol fixed and, after IF labelling, the number of parasites observed in 10 high power fields (HPF) per well in each of the four wells per dilution was counted, statistically analysed and compared with infected wells which contained DMSO only. Paromomycin was used as the positive control drug.",
  "data": [
    {"smiles": "NC[C@@H]1O[C@H](O[C@H]2[C@@H](O)[C@H](O[C@@H]3[C@@H](O)[C@H](N)C[C@H](N)[C@H]3O[C@H]3O[C@H](CO)[C@@H](O)[C@H](O)[C@H]3N)O[C@@H]2CO)[C@H](N)[C@@H](O)[C@@H]1O", "note": "[paromomycin]", "values": [
      {"measurement": "inhibition at 2000 µg/mL", "result": 79.4, "unit": "%"}
    ]}
  ]
}
